Reference: patent US20060069132A1, “Azolecarboxamide herbicides” (priority 2004, published 2006)
Read-outs that look alike come from different tables or passages of the source.

How the values were obtained:
soybean = test: Test C pre-/postemergence herbicide test; format: in vivo, Glycine max
Method in brief: (§1)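 Pre- and postemergence application, solvent/surfactant formulation; post at 1- to 4-leaf stage (2–18 cm). Greenhouse 12–14 d. Visual rating vs controls, 0 = no effect, 100 = complete control.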

[1] = system: smallflower umbrella sedge; test: Test C flooded paddy test; format: in vivo, Cyperus difformis
[2] = system: common (oilseed) sunflower; test: Test C pre-/postemergence herbicide test; format: in vivo, Helianthus annuus
Method in brief: as §1

rice [3] = test: Test C flooded paddy test; format: in vivo, Oryza sativa
Method in brief: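 Postemergence sprays applied to plants 2 to 18 cm tall (1- to 4-leaf stage); paddy species grown to 2-leaf stage under flooding. After 12 to 14 days in greenhouse, visual rating versus untreated controls on 0–100 scale (0 no effect, 100 complete control).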

woolly cupgrass = test: Test C pre-/postemergence herbicide test; format: in vivo, Eriochloa villosa
Method in brief: as §1

rice [4] = test: Test B pre-/postemergence herbicide test; format: in vivo, Oryza sativa
Method in brief: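 Seeds were planted and treated preemergence with compounds formulated in a non-phytotoxic solvent mixture containing surfactant, while plants at the 1- to 4-leaf stage (2 to 18 cm) received postemergence sprays. Flooded paddy plants were grown to the 2-leaf stage. After 13 to 15 days in a greenhouse, injury was visually rated 0–100 against untreated controls.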

corn = test: Test C pre-/postemergence herbicide test; format: in vivo, Zea mays
Method in brief: as §1

large crabgrass = test: Test A pre-/postemergence herbicide test; format: in vivo, Digitaria sanguinalis; settings: Digitaria sanguinalis, 240 h; for pest or weed control at 500 g/ha: 500 g ai/ha; for pest or weed control at 2000 g/ha: 2000 g ai/ha
Method in brief: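 Visual injury rating on a 0–100 scale (0 no effect, 100 complete control) versus untreated controls, about ten days after treatment in greenhouse. Pre: directed soil spray onto seeded sandy loam. Post: spray to runoff on plants 2–10 cm tall at one- to two-leaf stage.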

velvetleaf = test: Test C pre-/postemergence herbicide test; format: in vivo, Abutilon theophrasti
Method in brief: as §1

bermudagrass = test: Test C pre-/postemergence herbicide test; format: in vivo, Cynodon dactylon
Method in brief: as §1

[5] = Preemergence, 500 g ai/ha, scale 0 to 100, 0 no effect, 100 complete control
[6] = post-emergence, Postemergence, 0 to 100 scale, 0 no effect, 100 complete control, read-out: Plant response rating, Crabgrass, Large
[7] = 62 g ai/ha, preemergence, scale 0 to 100
[8] = 250 g ai/ha, scale 0-100, preemergence
[9] = 500 g ai/ha, scale 0 to 100 (0 no effect, 100 complete control), visual, 12 to 14 days, preemergence
[10] = Postemergence, 500 g ai/ha, scale 0 to 100
[11] = Postemergence, 250 g ai/ha, scale 0 to 100, 0 no effect, 100 complete control
[12] = postemergence, 125 g ai/ha, scale 0 to 100
[13] = postemergence, 62 g ai/ha, scale 0 to 100
[14] = 125 g ai/ha, scale 0 to 100 (0 no effect, 100 complete control)
[15] = 250 g ai/ha, scale of 0 to 100, 0 is no effect, 100 is complete control
[16] = 500 g ai/ha, visual rating after 12 to 14 days, scale 0 to 100 (0 no effect, 100 complete control)
[17] = 125 g ai/ha, scale 0 (no effect) to 100 (complete control), visual, 12 to 14 days, preemergence

CCn1nc(C(C)(C)C)cc1C(=O)Nc1cc(C(=O)N(C)C)ccc1F [Compound 6, N-[5-[(dimethylamino)carbonyl]-2-fluorophenyl]-3-(1,1-dimethylethyl)-1-ethyl-1H-pyrazole-5-carboxamide]
Plant response rating (0 = no effect, 100 = complete control), Soybean (soybean; 62 g ai/ha, preemergence): 70 | plant injury at 250 g/ha (soybean; Glycine max, pre-emergence, 250 g ai/ha, scale 0 to 100 (0 no effect, 100 complete control), visual, 12 to 14 days, read-out: Plant response rating, Soybean): 100% | Soybean plant response rating (soybean; [5]): 100 | pest or weed control at 62 g/ha ([1]; Cyperus difformis, 62 g ai/ha, scale 0 to 100 (0 no effect, 100 complete control), read-out: Sedge, Umbrella plant response rating): 70% | pest or weed control at 125 g/ha ([1]; Cyperus difformis, 125 g ai/ha, scale of 0 to 100, 0 is no effect, 100 is complete control, read-out: Sedge, Umbrella plant response rating): 90% | pest or weed control at 250 g/ha ([1]; Cyperus difformis, 250 g ai/ha, visual rating after 12 to 14 days, scale 0 to 100 (0 no effect, 100 complete control), read-out: Plant response rating, Sedge, Umbrella): 90% | pest or weed control at 500 g/ha ([1]; Cyperus difformis, 500 g ai/ha, visual rating after 12 to 14 days, scale 0 to 100 (0 no effect, 100 complete control), read-out: Plant response rating, Sedge, Umbrella): 90% | Plant response rating (0 = no effect, 100 = complete control), Sunflower ([2]; 62 g ai/ha, preemergence): 0 | pest or weed control at 250 g/ha ([2]; Helianthus annuus, pre-emergence, 250 g ai/ha, scale 0 to 100 (0 no effect, 100 complete control), visual, 12 to 14 days, read-out: Plant response rating, Sunflower): 100% | Sunflower plant response rating [2, 5]: 100 | plant injury at 62 g/ha (rice [3]; Oryza sativa, 62 g ai/ha, scale 0 to 100 (0 no effect, 100 complete control), read-out: Rice plant response rating): 40% | plant injury at 125 g/ha (rice [3]; Oryza sativa, 125 g ai/ha, scale of 0 to 100, 0 is no effect, 100 is complete control, read-out: Rice plant response rating): 80% | plant injury at 250 g/ha (rice [3]; Oryza sativa, 250 g ai/ha, visual rating after 12 to 14 days, scale 0 to 100 (0 no effect, 100 complete control), read-out: Plant response rating, Rice): 80% | plant injury at 500 g/ha (rice [3]; Oryza sativa, 500 g ai/ha, visual rating after 12 to 14 days, scale 0 to 100 (0 no effect, 100 complete control), read-out: Plant response rating, Rice): 90% | Plant response rating (0 = no effect, 100 = complete control), Cupgrass, Woolly (woolly cupgrass; 62 g ai/ha, preemergence): 50 | pest or weed control at 125 g/ha (woolly cupgrass; Eriochloa villosa, pre-emergence, 312 h, 125 g ai/ha, scale 0-100, read-out: Plant response rating, Cupgrass, Woolly): 55% | pest or weed control at 250 g/ha (woolly cupgrass; Eriochloa villosa, pre-emergence, 312 h, 250 g ai/ha, scale 0 to 100 (0 no effect, 100 complete control), visual, 12 to 14 days, read-out: Plant response rating, Cupgrass, Woolly): 75% | Cupgrass, Woolly plant response rating (woolly cupgrass; [5]): 75 | Rice plant response rating (rice [4]; Preemergence, 500 g ai/ha, scale 0 to 100): 100 | Plant response rating (0 = no effect, 100 = complete control), Corn (corn; 62 g ai/ha, preemergence): 60 | Corn plant response rating (corn; [5]): 80 | Corn plant response rating (crop injury, 0 = no effect, 100 = complete kill) at 125 g/ha (corn; Zea mays, pre-emergence, 312 h, 125 g ai/ha, scale 0-100): 60% | Corn plant response rating (crop injury, 0 = no effect, 100 = complete kill) at 250 g/ha (corn; Zea mays, pre-emergence, 312 h, 250 g ai/ha, scale 0 to 100 (0 no effect, 100 complete control), visual, 12 to 14 days): 80% | pest or weed control at 500 g/ha (large crabgrass; [6]): 80% | pest or weed control at 2000 g/ha (large crabgrass; [6]): 90% | pest or weed control at 500 g/ha (large crabgrass; pre-emergence, Preemergence, visual rating, 0 to 100 scale (0 no effect, 100 complete control), read-out: Crabgrass, Large plant response rating): 100% | pest or weed control at 2000 g/ha (large crabgrass; pre-emergence, Preemergence, 0 to 100 scale, 0 no effect, 100 complete control, read-out: Crabgrass, Large plant response rating): 100% | Plant response rating (0 = no effect, 100 = complete control), Velvetleaf (velvetleaf; 62 g ai/ha, preemergence): 40 | pest or weed control at 250 g/ha (velvetleaf; Abutilon theophrasti, pre-emergence, 250 g ai/ha, scale 0 to 100 (0 no effect, 100 complete control), visual, 12 to 14 days, read-out: Plant response rating, Velvetleaf): 100% | Velvetleaf plant response rating (velvetleaf; [5]): 100 | Plant response rating (0 = no effect, 100 = complete control), Bermudagrass (bermudagrass; 62 g ai/ha, preemergence): 80 | pest or weed control at 125 g/ha (bermudagrass; Cynodon dactylon, pre-emergence, 312 h, 125 g ai/ha, scale 0-100, read-out: Plant response rating, Bermudagrass): 90% | pest or weed control at 250 g/ha (bermudagrass; Cynodon dactylon, pre-emergence, 312 h, 250 g ai/ha, scale 0 to 100 (0 no effect, 100 complete control), visual, 12 to 14 days, read-out: Plant response rating, Bermudagrass): 90% | pest or weed control at 500 g/ha (bermudagrass; Cynodon dactylon, pre-emergence, 312 h, Preemergence, 500 g ai/ha, scale 0 to 100, 0 no effect, 100 complete control, read-out: Bermudagrass plant response rating): 90%

CCn1nc(C(C)(C)C)cc1C(=O)Nc1cccc(OC(F)(F)C(F)F)c1 [Compound 333]
Plant response rating, Soybean (soybean; [7]): 0 | Plant response rating, Soybean (soybean; [8]): 0 | Plant response rating, Soybean (soybean; [9]): 0 | Soybean plant response rating (soybean; [10]): 45 | Plant response rating, Soybean (soybean; [11]): 40 | Plant response rating, Soybean (soybean; [12]): 30 | Plant response rating, Soybean (soybean; [13]): 30 | Sedge, Umbrella plant response rating ([1]; 62 g ai/ha, scale 0 to 100): 0 | Sedge, Umbrella plant response rating [1, 14]: 15 | Sedge, Umbrella plant response rating [1, 15]: 30 | Plant response rating, Sedge, Umbrella [1, 16]: 80 | Plant response rating, Sunflower [2, 7]: 0 | Plant response rating, Sunflower [2, 8]: 0 | Plant response rating, Sunflower [2, 9]: 0 | Rice plant response rating (rice [3]; 62 g ai/ha, scale 0 to 100): 0 | Rice plant response rating (rice [3]; [14]): 0 | Rice plant response rating (rice [3]; [15]): 15 | Plant response rating, Rice (rice [3]; [16]): 20 | Plant response rating, Cupgrass, Woolly (woolly cupgrass; [7]): 0 | Plant response rating, Cupgrass, Woolly (woolly cupgrass; [17]): 0 | Plant response rating, Cupgrass, Woolly (woolly cupgrass; [8]): 0 | Plant response rating, Cupgrass, Woolly (woolly cupgrass; [9]): 30 | Cupgrass, Woolly plant response rating (woolly cupgrass; [10]): 10 | Plant response rating, Cupgrass, Woolly (woolly cupgrass; [11]): 5 | Plant response rating, Cupgrass, Woolly (woolly cupgrass; [12]): 0 | Plant response rating, Cupgrass, Woolly (woolly cupgrass; [13]): 0 | Plant response rating (0 to 100 scale), Rice (rice [4]; 125 g ai/ha, 0 is no effect, 100 is complete control, preemergence): 0 | Plant response rating, Rice (rice [4]; 500 g ai/ha, visual rating, 0 = no effect, 100 = complete control, preemergence): 0 | Plant response rating, Corn (corn; [7]): 0 | Plant response rating, Corn (corn; [17]): 0 | Plant response rating, Corn (corn; [8]): 0 | Plant response rating, Corn (corn; [9]): 0 | Corn plant response rating (corn; [10]): 5 | Plant response rating, Corn (corn; [11]): 5 | Plant response rating, Corn (corn; [12]): 5 | Plant response rating, Corn (corn; [13]): 5 | Plant response rating, Velvetleaf (velvetleaf; [7]): 0 | Plant response rating, Velvetleaf (velvetleaf; [8]): 50 | Plant response rating, Velvetleaf (velvetleaf; [9]): 55 | Velvetleaf plant response rating (velvetleaf; [10]): 80 | Plant response rating, Velvetleaf (velvetleaf; [11]): 50 | Plant response rating, Velvetleaf (velvetleaf; [12]): 50 | Plant response rating, Bermudagrass (bermudagrass; 62 g ai/ha, preemergence, scale 0 to 100, 0 no effect, 100 complete control): 40 | Plant response rating, Bermudagrass (bermudagrass; [17]): 85 | Plant response rating, Bermudagrass (bermudagrass; [8]): 100 | Bermudagrass plant response rating (bermudagrass; [10]): 5 | Plant response rating, Bermudagrass (bermudagrass; [11]): 5 | Bermudagrass plant response rating (bermudagrass; [5]): 100 | Plant response rating, Bermudagrass (bermudagrass; [12]): 0 | Plant response rating, Bermudagrass (bermudagrass; [13]): 0
